# According to ChEMBL document CHEMBL1201862, “PubChem BioAssay data set” (2004):
#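 Following 48 hours of exposure in 96-well plates, responses at five concentrations were used to interpolate endpoints linearly. GI50 is the concentration that inhibits growth by half.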 Calls of active or inactive are those of the source. Cut-off read from the data, not from the text of the source: active = GI50 up to about 1.1 µM and inactive = higher.
# Legend:
# Test in all cases: inhibition of tumour cell growth, NCI panel, 48 h
# DMS-114 = test system: DMS-114
# SNB-78 = test system: SNB-78
# DLD-1 = test system: DLD-1
# DMS-273 = test system: DMS-273
# HOP-18 = test system: HOP-18
# LXFL 529 = test system: LXFL 529
# RXF 631 = test system: RXF 631
# XF498 = test system: XF498
# KM-20L2 = test system: KM-20L2
Structure (SMILES),GI50 (DMS-114),GI50 (SNB-78),GI50 (DLD-1),GI50 (DMS-273),GI50 (HOP-18),GI50 (LXFL 529),GI50 (RXF 631),GI50 (XF498),GI50 (KM-20L2)
CN(C)CCNC(=O)c1cccc2c1nc(-c1ccncc1)c1ccccc12,2.84 µM (inactive),5.9 µM (inactive),2.38 µM (inactive),0.767 µM (active),9.91 µM (inactive),–,–,–,–
O=[N+]([O-])c1cccc(C2=NOC3C4CCC(C4)C23)c1 (stereo not drawn),> 100 µM (inactive),–,> 100 µM (inactive),> 100 µM (inactive),> 100 µM (inactive),> 100 µM (inactive),> 100 µM (inactive),–,–
CCCN1CC=CCC1,> 100 µM (inactive),–,> 100 µM (inactive),–,> 100 µM (inactive),> 100 µM (inactive),–,> 100 µM (inactive),> 100 µM (inactive)
CC1=NN(c2ccccc2)C(=O)C1=C1SCCS1,> 46.3 µM (inactive),> 100 µM (inactive),32.6 µM (inactive),> 58.3 µM (inactive),36.3 µM (inactive),> 67.9 µM (inactive),> 89.7 µM (inactive),32.7 µM (inactive),> 65.6 µM (inactive)
Oc1cc(-c2ccccn2)nc2cccc(F)c12,> 100 µM (inactive),> 100 µM (inactive),> 100 µM (inactive),–,> 100 µM (inactive),74.1 µM (inactive),> 100 µM (inactive),–,> 100 µM (inactive)
CCOP(=O)(OCC)C(C(=O)OC)C(=O)C(=O)Nc1c(C)cc(Br)cc1C (stereo not drawn),> 100 µM (inactive),> 100 µM (inactive),> 100 µM (inactive),> 100 µM (inactive),49.7 µM (inactive),> 100 µM (inactive),> 100 µM (inactive),> 100 µM (inactive),> 100 µM (inactive)
Cc1cc(Cl)ccc1NC(=O)C(=O)Cc1occc(=O)c1O,> 100 µM (inactive),> 100 µM (inactive),> 100 µM (inactive),> 100 µM (inactive),> 100 µM (inactive),> 100 µM (inactive),> 100 µM (inactive),> 100 µM (inactive),> 100 µM (inactive)
CCOc1ccc2c(c1)[n+]([O-])c(S(=O)(=O)c1ccc(C)cc1)c(N)[n+]2[O-],> 100 µM (inactive),> 100 µM (inactive),> 100 µM (inactive),–,> 100 µM (inactive),> 100 µM (inactive),–,–,> 100 µM (inactive)
Cc1c(C(=O)/C=C/c2ccco2)[n+]([O-])c2ccccc2[n+]1[O-],73.5 µM (inactive),> 100 µM (inactive),> 100 µM (inactive),> 100 µM (inactive),> 100 µM (inactive),> 100 µM (inactive),18.6 µM (inactive),> 100 µM (inactive),> 100 µM (inactive)
Cc1cc(N(CCC#N)CCC#N)ccc1/C=C1N=C(/C=C/c2ccccc2)N(c2ccc(S(N)(=O)=O)cc2)C\1=O,> 100 µM (inactive),> 100 µM (inactive),> 100 µM (inactive),–,–,> 100 µM (inactive),> 100 µM (inactive),–,> 100 µM (inactive)
COC(=O)C(=O)C(C(C)=O)C(=O)NCc1ccccc1 (stereo not drawn),> 100 µM (inactive),> 100 µM (inactive),> 100 µM (inactive),> 100 µM (inactive),> 100 µM (inactive),> 100 µM (inactive),–,> 100 µM (inactive),> 100 µM (inactive)
CCc1cccc(C(C)CC)c1NC(=O)C(=O)Cc1nc2ccccc2o1 (stereo not drawn),> 50 µM (inactive),> 50 µM (inactive),> 50 µM (inactive),> 50 µM (inactive),–,> 50 µM (inactive),–,> 50 µM (inactive),> 50 µM (inactive)
CCC1CN2CCc3c([nH]c4ccccc34)C2C[C@@H]1CC(=O)N(C)C (stereo partly drawn),> 100 µM (inactive),> 100 µM (inactive),> 100 µM (inactive),> 100 µM (inactive),> 100 µM (inactive),> 100 µM (inactive),–,> 100 µM (inactive),> 100 µM (inactive)
COCCOCOC(CCCCO)c1cc(C)c(O[Si](C)(C)C(C)(C)C)c(C)c1 (stereo not drawn),2.47 µM (inactive),–,–,–,16.9 µM (inactive),10.4 µM (inactive),–,–,4.72 µM (inactive)
COC(=O)CCC(NC(=S)N/N=C(\C)c1cnc2ccccc2n1)C(=O)OC (stereo not drawn),–,> 100 µM (inactive),29 µM (inactive),38.5 µM (inactive),39.4 µM (inactive),29.9 µM (inactive),52.6 µM (inactive),> 100 µM (inactive),15.5 µM (inactive)
COc1ccc2oc3c4c2c1CCC4CCC3=O (stereo not drawn),> 100 µM (inactive),> 100 µM (inactive),–,> 100 µM (inactive),–,> 100 µM (inactive),> 100 µM (inactive),> 100 µM (inactive),–
O=C1C(Cl)=C(N2CCN(C3=C(Cl)C(=O)c4ccccc4C3=O)CC2)C(=O)c2ccccc21,1.34 µM (inactive),0.61 µM (active),0.428 µM (active),2.14 µM (inactive),–,0.297 µM (active),1.85 µM (inactive),1.36 µM (inactive),3.78 µM (inactive)
CC1=NN(C(=O)Cc2ccccc2)C(=O)/C1=C\c1ccco1,> 100 µM (inactive),> 100 µM (inactive),> 100 µM (inactive),> 100 µM (inactive),> 100 µM (inactive),–,–,> 100 µM (inactive),–
O=C(Cc1ccccc1)N/N=C(\C1=Nc2ccc([N+](=O)[O-])cc2NC1O)C(O)c1ccc([N+](=O)[O-])cc1 (stereo not drawn),–,> 100 µM (inactive),> 100 µM (inactive),–,> 100 µM (inactive),42.6 µM (inactive),> 100 µM (inactive),> 100 µM (inactive),> 100 µM (inactive)
COc1ccc2c(NCCCCCCNc3c4ccccc4nc4cc(OC)ccc34)c3ccccc3nc2c1,0.1 µM (active),0.12 µM (active),0.242 µM (active),0.0313 µM (active),2.15 µM (inactive),0.04 µM (active),0.126 µM (active),–,0.065 µM (active)
C#CCN(N=O)C(=O)NC(CCCCNC(=O)OCc1ccccc1)C(=O)OCc1ccccc1 (stereo not drawn),19.8 µM (inactive),34.1 µM (inactive),20.1 µM (inactive),43.9 µM (inactive),20 µM (inactive),17 µM (inactive),–,–,54.6 µM (inactive)
O=C(O)CNS(=O)(=O)c1ccc(NCc2ccccc2)cc1,> 100 µM (inactive),> 100 µM (inactive),> 100 µM (inactive),> 100 µM (inactive),> 100 µM (inactive),> 100 µM (inactive),–,> 100 µM (inactive),> 100 µM (inactive)
COc1ccc(/C=C\c2cc(OC)c3c(c2)OCO3)c(O)c1O,2.88 µM (inactive),3.94 µM (inactive),6.28 µM (inactive),20 µM (inactive),20.6 µM (inactive),2.07 µM (inactive),–,11.1 µM (inactive),23.2 µM (inactive)
Cc1ccc(C(=O)N(C(C)C)C(C)C)cc1/N=N/N(C)C,–,35.9 µM (inactive),77.4 µM (inactive),> 100 µM (inactive),–,31.2 µM (inactive),–,–,> 100 µM (inactive)
COc1ccc(C(=O)Cc2c(C(=O)c3ccccc3)c3ccccc3n2C(=O)c2ccccc2)cc1,50.7 µM (inactive),–,74 µM (inactive),5.38 µM (inactive),–,67.6 µM (inactive),–,> 100 µM (inactive),> 100 µM (inactive)
Cc1ccc(Oc2ccc(C)cc2N)cc1,49.4 µM (inactive),75.5 µM (inactive),66.1 µM (inactive),75 µM (inactive),> 100 µM (inactive),> 100 µM (inactive),–,–,> 100 µM (inactive)
